Measurements published in patent US10851112B2, “Anti-HCMV virus compound” (MEDSHINE DISCOVERY INC., priority 2016, dated 2020).

Test system: US3-6-EGFP-HCMV-AD169 viruses
Test: Fluorescence decay assay against human cytomegalovirus
Format: cell-based, human cytomegalovirus (HCMV)
Conditions: Human betaherpesvirus 5, AD169, MRC5, 240 h
Protocol: Fluorescence Decay Assay Against Human Cytomegalovirus
The antiviral activity of the compound against human cytomegalovirus (HCMV) was evaluated by determining the half maximal effective concentration (EC50) of the compound. The HCMV used in this assay was inserted with enhanced green fluorescent protein (EGFP) by gene recombination, so the viral replication in cells could be reflected by the expression level of GFP. The inhibitory activity of the compound on HCMV GFP expression was evaluated by determining the fluorescence intensity in the wells of different concentrations of the compound using a high content cell analysis platform Acumen eX3.
Fluorescence Decay Assay Against HCMV
MRC5 cells were inoculated into a black 96-well cell culture plate at a density of 20,000 cells per well. The plate was incubated overnight in a 37° C., 5% CO2 incubator. US3-6-EGFP-HCMV-AD169 viruses were added to the cell culture well at a certain MOI (0.003-0.1) and the plate was incubated for 3 hours in a 37° C., 5% CO2 incubator. After adsorption of viruses, the medium containing viruses was aspirated and 200 μL of cell culture medium containing different concentrations of the compound (4-fold dilution, 6 test concentrations) was added. The final concentration of DMSO in the medium was 1%. Virus control wells (with DMSO added, but no compound was added) and inhibition control wells (with a high concentration of control compound added) were set. The cell plate was incubated for 10 days in a 37° C., 5% CO2 incubator and the liquid was renewed on the 4th day and 7th day. After 10 days of culture, the fluorescence intensity was determined using a high content cell analysis platform Acumen eX3 (TTP LabTech). The original data was used for calculating the antiviral activity of the compound.
The inhibition % was imported into GraphPad Prism software for data processing to give a corresponding dose-response curve for the compound and the EC50 of the test compound was obtained.

SMILES | EC50 [nM]
COc1ccc(C(F)(F)F)cc1N1C(N2CCN(c3ccc(F)cc3)CC2)=Nc2c(csc2F)[C@@H]1CC(=O)O (single isomer, unassigned) [WX-112] | 1
COc1cccc(N2CCN(C3=Nc4ccsc4[C@@H](CC(=O)O)N3c3cc(C(F)(F)F)ccc3OC)CC2)c1 (single isomer, unassigned) [WX-087] | > 1000
COc1cc(N2[C@H](C)CN(C3=Nc4cscc4[C@@H](CC(=O)O)N3c3cc(C(F)(F)F)ccc3OC)C[C@@H]2C)ccn1 (single isomer, unassigned) [WX-199] | > 10
COc1ccc(C(F)(F)F)cc1N1C(N2CCC(F)(c3ccc(F)cc3)CC2)=Nc2ccsc2[C@@H]1CC(=O)O (single isomer, unassigned) [WX-090] | 79
COc1cc(N2[C@H](C)CN(C3=Nc4cscc4[C@H](CC(=O)O)N3c3cc(C(F)(F)F)ccc3OC)C[C@@H]2C)ccn1 (single isomer, unassigned) [WX-198] | 0.713
COc1cccc(N2CCN(C3=Nc4ccsc4[C@@H](CC(=O)O)N3c3cc(C(F)(F)F)ccc3OC)C[C@H]2CF)c1 (single isomer, unassigned) [WX-171] | > 10
COc1cc(N2[C@H](C)CN(C3=Nc4ccsc4[C@H](CC(=O)O)N3c3cc(C(F)(F)F)ccc3OC)C[C@H]2C)ccn1 (single isomer, unassigned) [WX-196] | 1.91
COc1cc(N2[C@H](C)CN(C3=Nc4ccsc4[C@@H](CC(=O)O)N3c3cc(C(F)(F)F)ccc3OC)C[C@@H]2C)ccn1 (single isomer, unassigned) [WX-160] | 44.4
COc1cc(N2CCN(C3=Nc4ccsc4[C@@H](CC(=O)O)N3c3cc(C(F)(F)F)ccc3OC)CC2)ccn1 (single isomer, unassigned) [WX-108] | 340
COc1cncc(N2CCN(C3=Nc4c(csc4F)[C@H](CC(=O)O)N3c3cc(C(F)(F)F)ccc3OC)C[C@H]2C)c1 (single isomer, unassigned) [WX-133] | 17
COc1ccnc(N2CCN(C3=Nc4c(csc4F)[C@@H](CC(=O)O)N3c3cc(C(F)(F)F)ccc3OC)C[C@H]2C)n1 (single isomer, unassigned) [WX-130] | > 100
COc1cc(N2CCN(C3=Nc4ccsc4[C@H](CC(=O)O)N3c3cc(C(F)(F)F)ccc3OC)C[C@H]2C)ccc1F (single isomer, unassigned) [WX-201] | 0.53
COc1cncc(N2CCN(C3=Nc4ccsc4[C@@H](CC(=O)O)N3c3cc(C(F)(F)F)ccc3OC)C[C@H]2C)c1 (single isomer, unassigned) [WX-138] | > 1000
COc1cncc(N2CCN(C3=Nc4c(csc4F)[C@@H](CC(=O)O)N3c3cc(C(F)(F)F)ccc3OC)C[C@H]2C)c1 (single isomer, unassigned) [WX-134] | > 1000
COc1cc(N2CCN(C3=Nc4c(csc4F)[C@@H](CC(=O)O)N3c3cc(C(F)(F)F)ccc3OC)C[C@H]2C)ccn1 (single isomer, unassigned) [WX-148] | 12
COc1ccc(C(F)(F)F)cc1N1C(N2CCN(c3ccc(F)cc3)CC2)=Nc2c(csc2F)[C@H]1CC(=O)O (single isomer, unassigned) [WX-113] | 107
COc1ccnc(N2CCN(C3=Nc4c(csc4F)[C@@H](CC(=O)O)N3c3cc(C(F)(F)F)ccc3OC)C[C@H]2C)c1 (single isomer, unassigned) [WX-146] | 352
COc1cccc(N2CCN(C3=Nc4ccsc4[C@H](CC(=O)O)N3c3cc(C(F)(F)F)ccc3OC)C[C@H]2CF)c1 (single isomer, unassigned) [WX-172] | 0.099
CC[C@@H]1CN(C2=Nc3ccsc3[C@@H](CC(=O)O)N2c2cc(C(F)(F)F)ccc2OC)CCN1c1cccc(OC)c1 (single isomer, unassigned) [WX-169] | > 538

SMILES | EC50 [nM]
COc1cccc(N2CCN(C3=Nc4c(csc4F)[C@H](CC(=O)O)N3c3cc(C(F)(F)F)ccc3OC)CC2)c1 (single isomer, unassigned) [WX-076] | 1
COc1cc(N2CCN(C3=Nc4ccsc4[C@@H](CC(=O)O)N3c3cc(C(F)(F)F)ccc3OC)C[C@H]2C)ncn1 (single isomer, unassigned) [WX-144] | 261
COc1ccc(C(F)(F)F)cc1N1C(N2CCC(F)(c3ccc(F)cc3)CC2)=Nc2c(csc2F)[C@H]1CC(=O)O (single isomer, unassigned) [WX-100] | 73
COc1cccc(N2CCN(C3=Nc4ccsc4[C@@H](CC(=O)O)N3c3cc(C(F)(F)F)ccc3OC)C[C@H]2C)c1 (single isomer, unassigned) [WX-135] | 941
COc1cccc(N2CCN(C3=Nc4cc(Cl)sc4[C@@H](CC(=O)O)N3c3cc(C(F)(F)F)ccc3OC)CC2)c1 (single isomer, unassigned) [WX-106] | > 1000
COc1cc(N2CCN(C3=Nc4c(csc4F)[C@@H](CC(=O)O)N3c3cc(C(F)(F)F)ccc3OC)CC2)ccn1 (single isomer, unassigned) [WX-098] | 31
COc1cccc(N2CCN(C3=Nc4c(csc4F)[C@@H](CC(=O)O)N3c3cc(C(F)(F)F)ccc3OC)C[C@H]2C)c1 (single isomer, unassigned) [WX-131] | 55
COc1cc(N2CCN(C3=Nc4cc(C)sc4[C@H](CC(=O)O)N3c3cc(C(F)(F)F)ccc3OC)C[C@H]2C)ccn1 (single isomer, unassigned) [WX-173] | 0.849
COc1ccnc(N2CCN(C3=Nc4ccsc4[C@@H](CC(=O)O)N3c3cc(C(F)(F)F)ccc3OC)C[C@H]2C)c1 (single isomer, unassigned) [WX-140] | 144
COc1cc(N2CCN(C3=Nc4c(csc4F)[C@@H](CC(=O)O)N3c3cc(C(F)(F)F)ccc3OC)C[C@H]2C)ncn1 (single isomer, unassigned) [WX-150] | 20
COc1cccc(N2CCN(C3=Nc4cscc4[C@@H](CC(=O)O)N3c3cc(C(F)(F)F)ccc3OC)C[C@H]2C)c1 (single isomer, unassigned) [WX-203] | > 10
COc1cc(N2CCN(C3=Nc4c(csc4F)[C@H](CC(=O)O)N3c3cc(C(F)(F)F)ccc3OC)CC2)ccn1 (single isomer, unassigned) [WX-097] | 1
COc1cc(N2[C@H](C)CN(C3=Nc4ccsc4[C@@H](CC(=O)O)N3c3cc(C(F)(F)F)ccc3OC)C[C@H]2C)ccn1 (single isomer, unassigned) [WX-197] | > 10
COc1cc(N2CCN(C3=Nc4ccsc4[C@@H](CC(=O)O)N3c3cc(C(F)(F)F)ccc3OC)C[C@H]2C)ccn1 (single isomer, unassigned) [WX-142] | 56
COc1cc(N2CCN(C3=Nc4cc(C)sc4[C@@H](CC(=O)O)N3c3cc(C(F)(F)F)ccc3OC)C[C@H]2C)ccn1 (single isomer, unassigned) [WX-174] | > 10
COc1ccnc(N2CCN(C3=Nc4c(csc4F)[C@H](CC(=O)O)N3c3cc(C(F)(F)F)ccc3OC)C[C@H]2C)n1 (single isomer, unassigned) [WX-129] | 14
COc1ccc(C(F)(F)F)cc1N1C(N2CCC(F)(c3ccc(F)cc3)CC2)=Nc2c(csc2F)[C@@H]1CC(=O)O (single isomer, unassigned) [WX-099] | 24
COc1cccc(N2CCN(C3=Nc4cc(Cl)sc4[C@H](CC(=O)O)N3c3cc(C(F)(F)F)ccc3OC)CC2)c1 (single isomer, unassigned) [WX-107] | 4
COc1cccc(N2CCN(C3=Nc4c(csc4F)[C@@H](CC(=O)O)N3c3cc(C(F)(F)F)ccc3OC)CC2)c1 (single isomer, unassigned) [WX-075] | 295
